Experimental data published in patent US10472315B2, “Inhibitors of methionine aminopeptidases and methods of treating disorders” (THE JOHNS HOPKINS UNIVERSITY, priority 2009, dated 2019).
In brackets after ≈: the same amount, converted by molar mass. Several values for one entry are separate records, joined by “and”; a condition that tells them apart may be missing. Equal values may be shown once. Entries after “also recorded” stand apart in the source; their conditions may differ. Read-outs that look alike come from different tables or passages of the source.

Legend:
MtMetAP1a = target: T1, MtMetAP1a (Mycobacterium tuberculosis, UniProt P9WK21); experiment: Coupled methionine-proline aminopeptidase assay (Met-Pro-pNA), IC50 determination; assay type: biochemical, M. tuberculosis; conditions: for inhibition of MtMetAP1a, in words: statement on MtMetAPs / both enzymes
T1 construct: made in house; host or cells: E. coli BL21 (DE3)
T1 sequence (P9WK21 whole entry): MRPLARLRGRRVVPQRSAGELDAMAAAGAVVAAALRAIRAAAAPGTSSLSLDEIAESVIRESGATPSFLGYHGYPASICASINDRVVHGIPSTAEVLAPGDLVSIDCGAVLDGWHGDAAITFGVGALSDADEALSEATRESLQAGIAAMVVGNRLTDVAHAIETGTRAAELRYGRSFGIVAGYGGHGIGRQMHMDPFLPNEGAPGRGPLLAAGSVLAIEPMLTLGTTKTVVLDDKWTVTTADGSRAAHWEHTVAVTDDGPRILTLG
Procedure: (§1) Determination of IC50 of Inhibitors of MtMetAPs and Clustering of Structural Classes of Inhibitors (ASDI-ISIS)
(§2) We determined the concentration needed for 50% inhibition in 96-well plates at final concentrations ranging from 100 μM-300 nM (for 81 compounds that were available in larger quantities). The total reaction volume was 50 μL and each reaction contained each MtMetAP1 respectively and 40 mM Hepes buffer (p.H 7.5), 100 mM NaCl, 100 μg/mL BSA, 0.1 U/mL ProAP, 1.5 μM CoCl2, 600 μM substrate (Met-Pro-pNA). The enzyme was pre-incubated with compounds for 20 min at room temperature followed by addition of substrate. The reaction was incubated at room temperature for 30 min and monitored at 405 nm on a spectrophotometer. The background hydrolysis was corrected and the data was fitted against the sigmoidal-dose response (variable slope) equation using GraphPad Prism software.

[1] = test system: Aged-cultured M. tuberculosis H37Ra; experiment: microbe, parasite or virus in culture; assay type: cell-based; conditions: for MIC: Mycobacterium tuberculosis, H37RA, read-out: M.I.C. (μg/mL) Aged-cultured M. tuberculosis
M. tuberculosis H37Rv = experiment: Minimum inhibitory concentration in replicating M. tuberculosis; assay type: cell-based; conditions: for MIC: Mycobacterium tuberculosis, H37RV, 336 h, read-out: M.I.C. (μg/mL) M. tuberculosis
MtMetAP1c = target: T2, MtMetAP1c (Mycobacterium tuberculosis, UniProt P9WK19); experiment: Coupled methionine-proline aminopeptidase assay (Met-Pro-pNA), IC50 determination; assay type: biochemical, M. tuberculosis; conditions: for inhibition of MtMetAP1c, in words: statement on MtMetAPs / both enzymes
T2 construct: made in house; host or cells: E. coli BL21
T2 sequence (P9WK19 whole entry): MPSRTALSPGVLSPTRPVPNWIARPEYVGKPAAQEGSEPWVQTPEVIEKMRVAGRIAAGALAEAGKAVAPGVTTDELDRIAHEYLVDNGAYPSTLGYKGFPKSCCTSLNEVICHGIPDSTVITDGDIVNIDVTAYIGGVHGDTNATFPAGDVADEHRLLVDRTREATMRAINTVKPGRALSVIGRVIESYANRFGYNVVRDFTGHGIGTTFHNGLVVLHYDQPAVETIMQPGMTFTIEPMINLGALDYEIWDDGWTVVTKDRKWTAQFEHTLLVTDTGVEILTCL
Procedure: as §1, §2

[2] = recombinant enzyme, 1.5 μM CoCl2, 600 μM Met-Pro-pNA, read-out: IC50 (μM) MtMetAP1a

## CCCN(CCC)C1=C(Cl)C(=O)c2ccccc2C1=O [Compound 26]
MtMetAP1a; [2]
  IC50: > 50 µM

## Cc1cc(C)cc(NC2=C(Cl)C(=O)c3ccccc3C2=O)c1 [Compound 19]
MtMetAP1a; [2]
  IC50: 13.9 ± 1 µM

## NC1=C(Cl)C(=O)c2ccccc2C1=O [Compound 5]
MtMetAP1a; [2]
  IC50: > 100 µM

## O=C1C(Cl)=C(N2CCCCC2)C(=O)c2ccccc21 [Compound 3]
[1]
  MIC: > 27.6 µg/mL
M. tuberculosis H37Rv
  MIC: > 25 µg/mL
MtMetAP1a; [2]
  IC50: 8 ± 1.3 µM

## O=C1C(Cl)=C(Nc2cccc(F)c2)C(=O)c2ccccc21 [Compound 13]
MtMetAP1a; [2]
  IC50: > 30 µM

## CC1=CC(=O)c2c(O)cccc2C1=O [Compound 24]
MtMetAP1a; [2]
  IC50: > 50 µM

## O=C1C(Oc2ccc(F)cc2)=C(Oc2ccc(F)cc2)C(=O)c2ccccc21 [Compound 21]
M. tuberculosis H37Rv
  increase in MIC values relative to compounds 4 and 20: about a two-fold increase
  MIC: > 25 µg/mL
MtMetAP1a; [2]
  IC50: 4.93 ± 0.2 µM

## COc1ccc(NC2=C(Cl)C(=O)c3ccccc3C2=O)cc1 [Compound 18]
MtMetAP1a; [2]
  IC50: 15.9 ± 0.6 µM

## CC1=C(C/C=C(\C)CCCC(C)CCCC(C)C)C(=O)c2ccccc2C1=O (centres unmarked) [Compound 28]
MtMetAP1a; [2]
  IC50: > 50 µM

## O=C1C(Cl)=C(N2CCN(c3cccc(Cl)c3)CC2)C(=O)c2ccccc21 [Compound 8]
MtMetAP1a; [2]
  IC50: > 100 µM

## O=C1C(Br)=C(Br)C(=O)c2ccccc21 [Compound 20, 2,3-dibromo-1,4-naphthoquinone]
[1]
  effectiveness against the aged-cultured form compared with the replicating form: equally effective
M. tuberculosis H37Rv
  MIC: 10 to 25 µg/mL (≈ 31.7 to 79.1 µM)
MtMetAP1a; [2]
  IC50: ~1 µM and 1.14 µM
MtMetAP1c; recombinant enzyme, 1.5 μM CoCl2, 600 μM Met-Pro-pNA, read-out: IC50 (μM) MtMetAP1c
  IC50: ~1 µM and 0.71 µM

## Cc1cccc(NC2=C(Cl)C(=O)c3ccccc3C2=O)c1 [Compound 17]
MtMetAP1a; [2]
  IC50: 18.6 ± 6.1 µM

## CN(C)c1ccc(NC2=C(Cl)C(=O)c3ccccc3C2=O)cc1 [Compound 15]
MtMetAP1a; [2]
  IC50: > 30 µM

## O=C1C(Cl)=C(N2CCN(c3ccc(Cl)c(Cl)c3)CC2)C(=O)c2ccccc21 [Compound 9]
MtMetAP1a; [2]
  IC50: > 100 µM

## O=C1C(Cl)=C(Cl)C(=O)c2ccccc21 [Compound 4, 2,3-dichloro-1,4-naphthoquinone]
[1]
  effectiveness against the aged-cultured form compared with the replicating form: equally effective
  MIC: 5.7 to 11.4 µg/mL (≈ 25.1 to 50.2 µM)
M. tuberculosis H37Rv
  M.I.C. (μg/mL) M. tuberculosis: 10 µg/mL
  MIC: 10 µg/mL (≈ 44 µM)
MtMetAP1a
  IC50: 3.3 ± 0.3 µM
MtMetAP1c
  IC50: 6.6 ± 1.2 µM

## Cc1ccc(Cl)cc1N1CCN(C2=C(Cl)C(=O)c3ccccc3C2=O)CC1 [Compound 10]
MtMetAP1a; [2]
  IC50: > 100 µM

## O=C1C(Cl)=C(Nc2ccccc2)C(=O)c2ccccc21 [Compound 16]
MtMetAP1a; [2]
  IC50: > 50 µM

## O=C1C=C(O)C(=O)c2ccccc21 [Compound 25]
MtMetAP1a; [2]
  IC50: > 50 µM

## O=C1C(Cl)=C(N2C(=O)c3c(Cl)c(Cl)c(Cl)c(Cl)c3C2=O)C(=O)c2ccccc21 [Compound 2]
[1]
  MIC: 23.8 µg/mL (≈ 50.1 µM)
M. tuberculosis H37Rv
  increase in MIC values relative to compounds 4 and 20: about a two-fold increase
  MIC: 25 µg/mL (≈ 52.6 µM)
MtMetAP1a; [2]
  IC50: 4 ± 0.3 µM

## O=C1C=CC(=O)c2c(O)cccc21 [Compound 23]
MtMetAP1a; [2]
  IC50: > 50 µM

## O=C1C(Cl)=C(NCc2ccc(Cl)cc2)C(=O)c2ccccc21 [Compound 6]
MtMetAP1a; [2]
  IC50: > 100 µM

## O=C1C(Cl)=C(Oc2ccc(F)cc2)C(=O)c2ccccc21 [Compound 22]
M. tuberculosis H37Rv
  increase in MIC values relative to compounds 4 and 20: about a two-fold increase
  MIC: > 25 µg/mL
MtMetAP1a; [2]
  IC50: 7.58 ± 0.28 µM

## COC(=O)c1ccc(NC2=C(Cl)C(=O)c3ccccc3C2=O)cc1 [Compound 14]
MtMetAP1a; [2]
  IC50: > 30 µM

## CC1=CC(=O)c2ccccc2C1=O [Compound 29]
MtMetAP1a; [2]
  IC50: > 50 µM

## CN1CCN(C2=C(Cl)C(=O)c3ccccc3C2=O)CC1 [Compound 7]
MtMetAP1a; [2]
  IC50: > 100 µM

## ON=CNc1nc2c(s1)CCOc1cc3c(cc1-2)OCO3 [Amidoxime 58]
MtMetAP1a; read-out: inhibitor of MtMetAP1a (potency in text)
  IC50: 0.76 µM
MtMetAP1a; relative to amidoxime 48
  improvement over the lead-like hit 48, MtMetAP1a: 48 fold
MtMetAP1a
  inhibition of MtMetAP1a, in words: very potent
MtMetAP1c; read-out: inhibitor of MtMetAP1c (potency in text)
  IC50: 0.06 µM
MtMetAP1c; relative to amidoxime 48
  improvement over the lead-like hit 48, MtMetAP1c: 7 fold
MtMetAP1c
  inhibition of MtMetAP1c, in words: very potent

## O=C1C(Cl)=C(Nc2cccc(C(F)(F)F)c2)C(=O)c2ccccc21 [Compound 12]
MtMetAP1a; [2]
  IC50: > 30 µM

## Oc1c(Br)cc(Cl)c2cccnc12 [Compound 69, 7-bromo-5-chloroquinolin-8-ol]
MtMetAP1a
  inhibition of MtMetAP1a, in words: low micromolar range; also recorded: most potent
MtMetAP1c
  inhibition of MtMetAP1c, in words: low micromolar range; also recorded: most potent

## O=C(NC1=C(Cl)C(=O)c2ccccc2C1=O)c1cc(C(F)(F)F)cc(C(F)(F)F)c1 [Compound 27]
MtMetAP1a; [2]
  IC50: > 50 µM

## COc1ccc2c(c1)-c1nc(NC=NO)sc1CC2 [Amidoxime 49, N′-hydroxy-N-(8-methoxy-4,5-dihydronaphtho[1,2-d]thiazol-2-yl)formimidamide]
MtMetAP1c; relative to amidoxime 48
  potency against MtMetAP1c when compared to 48: two times less potent
